In patent US20250018019A1, “TREATMENT OF INTERFERON DRIVEN INFLAMMATION” (The Provost, Fellows, Foundation Scholars and the other …, priority 2023, published 2025):

B1: IFN-β: recombinant mouse IFN-β1 used to stimulate BMDMs (protein, UniProt P01575 22-182, looked up)
Interferon beta: INYKQLQLQERTNIRKCQELLEQLNGKINLTYRADFKIPMEMTEKMQKSYTAFAIQEMLQNVFLVFRNNFSSTGWNETIVVRLLDELHQQTVFLKTVLEEKQEERLTWEMSSTALHLKSYYWRVQRYLKLMKYNSYAWMVVRAEIFRNFLIIRRLTRNFQN

Experiments:
Type in all cases: cell-based, mouse
[1] = tested on: BMDMs; assay: Flow cytometry, CellROX and TMRM staining; settings: BMDMs pre-treated, LPS 4 h; oligomycin 10 μM, CCCP 50 μM, valinomycin 10 nM, MMF 50 or 100 μM
Method: (§1) All compounds used DMSO as a vehicle except for 4-hydroxy tamoxifen (EtOH), NAC (PBS), and AOAA for tracing experiments (Media). LPS was used at a concentration of 100 ng/ml for indicated timepoints (2, 3, 4, 6, 8, 24, 48 h). FHIN1 (10 or 20 μM), MMF (50 or 100 μM), DMF (25 μM), AOAA (5 mM), oligomycin (10 μM), CCCP (50 μM) NAC (1 mM), and IMT1 (10 μM) pre-treatments were performed for 3 h prior the addition of LPS. Cells were treated with valinomycin (10 nM) 15 mins before LPS stimulation. Anti-CD210 or IgG control (10 μg/ml) antibodies were added to cells 1 h prior to LPS stimulation. Recombinant mouse IL-10 protein (100 ng/ml) was added to cells at the same time as LPS. Cells were treated with IFN-B1 (220 ng/ml) for 3 h. Cells were treated with C-178 (1 μM) 1 h prior to LPS stimulation or transfection with 2′3′-cGAMP (1.5 μg/ml) for 4 hrs to achieve cGAS-STING activation. Cells were treated with ODN 2088 (1 μM) for 1 hr prior to LPS stimulation or transfection with CPG ODN 1826 (1.5 μg/ml) to achieve TLR9 activation. 3 different timepoints of 4-hydroxy tamoxifen (TAM) (600 nM or 2 μM) or EtOH treatment were performed-these are specified in the individual figure legends. For ‘48 h’ treatments EtOH/TAM was added on day 5 of 6 during the BMDM differentiation protocol. On day 6 they were plated with EtOH/TAM (left overnight) and treated the following day. For ‘72 h’ treatments EtOH/TAM was added on day […] of 6 during the BMDM differentiation protocol. On day 6 they were plated with EtOH/TAM (left overnight) and treated the following day. For ‘96 h’ treatments EtOH/TAM was added on day […] of 6 during the BMDM differentiation protocol. On day 6 they were plated with EtOH/TAM and treated 2 days later.
Cells were plated in 12-well plates and treated as desired. CellROX Green (5 μM, Thermo Fisher) or TMRM (20 nM, Thermo Fisher) was added to cells 30 mins prior to end of cell treatments. Cells were washed once in PBS and scraped into 200 μl FACS buffer (2 mM EDTA, 0.5% FCS in PBS). Acquisition of samples was performed on a BD Accuri C6 flow cytometer. The gating strategy used for all flow cytometry experiments consisted of debris exclusion by FSC-A vs SSC-A analysis and subsequent doublet exclusion by FSC-A vs FSC-H analysis. A sample gating strategy is provided in Supplementary FIG. 2. 10,000 cells was acquired per condition. Mean fluorescence intensity (MFI) was calculated for all cells in each condition using FlowJo v10.

[2] = tested on: BMDMs; assay: ELISA of cytokine release from BMDMs; settings: LPS 4 h; for LPS-induced IFN-β release: BMDMs pre-treated
Method: as §1
(§2) Pre-designed silencer select siRNAs for Cgas (s103166), Tmem173 (s91058), Tlr3 (s100579), Tlr9 (s96268), As/(s99640), Tlr7 (s100720), Ddx58 (s106376), Ifih1 (s89787), Nrf2 (s70522), Atf4 (s62689) and negative control (4390843) were ordered from Thermo Fisher. siRNA sequences are given in Table S2. Cells were transfected with 50 nM siRNA using 5 μl lipofectamine RNAiMAX according to manufacturer's instructions (Thermo Fisher). Cells were transfected in medium without serum and antibiotics which was replaced with complete medium 8 hours later. Cells were subsequently left for at least a further 12 hours prior to treatment.
BMDMs were plated in the presence or absence of ultrapure ethidium bromide (100 ng/ml) and incubated for a further 6 days prior to treatment. Depletion of mtDNA was determined by genomic DNA isolation followed by qPCR using primers specific for areas of mitochondrial DNA (D-loop) and areas of mtDNA that are not inserted into nuclear DNA (Non-NUMT).
DuoSet ELISA kits for IL-1β, TNFα, IL-6, IL-10, and GDF15 were purchased from R&D Systems and were carried out according to the manufacturer's instructions with appropriately diluted cell supernatants added to each plate in duplicate or triplicate. IFN-β was determined using DuoSet ELISA kit from R&D Systems or Abcam (ab252363). Quantikine ELISA kit for IFN-β (R&D Systems) was used for determination of IFN-β concentration in serum samples and from human cells, and these were also carried out according to the manufacturer's instructions. Absorbance at 450 nm was quantified using a FLUOstar Optima plate reader. Corrected absorbance values were calculated by subtracting the background absorbance, and cytokine concentrations were subsequently obtained by extrapolation from a standard curve plotted on GraphPad Prism 9.2.0.

[3] = tested on: BMDMs; assay: Digitonin fractionation, qPCR of mtDNA and mtRNA
Method: as §1
BMDMs were plated at 0.5×10^6 cells/well and treated as desired. After treatment, cells were washed once with room temperature PBS, before being scraped on ice into ice cold PBS and pelleted at 500×g for 5 mins at 4° C. Supernatant was removed and discarded, and the pellet was resuspended in 400 μl extraction buffer (150 mM NaCl, 50 mM HEPES pH 7.4, 25 μg/ml digitonin). Samples were then placed in a rotating mixer at 4° C. for 10 mins before centrifugation at 2000×g at 4° C. for 5 mins. The resulting supernatant constituted the cytosolic fraction, from which RNA and DNA were isolated using an AllPrep DNA/RNA Mini Kit (Qiagen). Alternatively, the cytosolic fraction was concentrated using Strataclean Resin (Agilent) and analysed by western blot. The pellet constituted a fraction containing membrane-bound organelles which was lysed in RNA lysis buffer for RNA isolation or lysed in western blot lysis buffer for analysis by western blot. To determine the presence of mtRNA and mtDNA in the cytosol, qPCR was performed using primers specific for mitochondrial D-loop on cDNA which had been reverse-transcribed from RNA isolated from the cytosolic fraction (mtRNA) and on DNA isolated from the cytosolic fraction (mtDNA). In both cases, values were normalised using a housekeeping control gene (β-actin) amplified in cDNA which had been reverse-transcribed from RNA isolated from the membrane-bound fraction.

[4] = tested on: BMDMs; assay: RT-qPCR gene expression in BMDMs
Method: as §1
RNA extraction from cells was carried out using a Purelink™ RNA kit (Invitrogen) according to the manufacturer's instructions. BMDMs were treated as required, and following treatment were instantly lysed in 350 μl RNA lysis buffer. Isolated RNA was quantified using a NanoDrop 2000 spectrophotometer, and RNA concentration was normalised to the lowest concentration across all samples with RNAse-free water. If necessary, samples were DNAse-treated after quantification using DNAse I (Thermo Fisher) according to the manufacturer's instructions. Isolated RNA samples were normalised and converted into cDNA using the High-Capacity cDNA Reverse Transcription Kit (Thermo Fisher) according to manufacturer's instructions. 10 μl of RNA (at a maximum concentration of 100 ng/μl) was added to 10 μl of reverse transcription master mix to complete the reaction mixture. Real-time quantitative PCR was performed on the cDNA generated in the previous step, using primers designed in-house and ordered from Eurofins Genomics, as detailed in Table S2. The reaction was performed in a 96-well qPCR plate by a 7500 Fast Real-Time PCR machine (Thermo Fisher). Relative expression (2^−ΔΔCT) was calculated from the CT values for each sample and gene of interest.
as §2

[5] = tested on: BMDMs; assay: Immunofluorescence, Mitotracker Red and dsRNA; settings: BMDMs pre-treated, relative to DMSO control, LPS 4 h
Method: as §1
Cells were plated on 20 mm cover slips in 12-well plates. Cells were treated as required and Mitotracker Red CMXRos (100 nM, Thermo Fisher), was added to medium 30 mins prior to end of cell treatments. After 30 min incubation, cells were washed three times with warm PBS. Cells were subsequently fixed for 10 mins with 4% paraformaldehyde/PBS at 37° C. Cells were washed three times with PBS and permeabilized for 1 hour in block solution (1% BSA, 22.52 mg/ml glycine, 0.1% tween 20 in PBS). Anti-dsRNA antibody (Merck) was diluted 1/60 in block solution and incubated with cells overnight at room temperature. Cells were washed three times with PBS for 5 mins/wash. […] Images were analysed using the LAS X Life Science Microscope Software Platform (Leica). The same microscope instrument settings were used for all samples and all images were analysed using the same settings. […] Quantification of dsRNA or Mitotracker Red CMXRos signal intensity was performed using the measure function in ImageJ 1.53t (NIH).

| Molecule | mitochondrial membrane potential (MMP), TMRM staining [1] | LPS-induced IFN-β release [2] | dsRNA accumulation (immunofluorescence) [5] | further results |
| --- | --- | --- | --- | --- |
| N#CC(C#N)=NNc1cccc(Cl)c1 [CCCP] | significantly dissipated | boosted |  |  |
| Cc1ccccc1-c1cc(=O)oc2cc(OC(C)C(=O)N(C)C)ccc12 (centres unmarked) [IMT1] |  |  |  | effect on the FHIN1-mediated boost in IFN-β release ([2]; BMDMs co-treated with FHIN1 and IMT1 10 μM): abrogated; effect on the increase in mtRNA with FHIN1 (cytosolic and whole cell fraction) ([3]; BMDMs co-treated with FHIN1 and IMT1 10 μM, LPS 4 h): inhibited in both |
| CC(=O)N[C@@H](CS)C(=O)O [NAC, N-acetyl cysteine] |  |  |  | suppression of Il10 by FHIN1 and DMF ([4]; BMDMs, NAC 1 mM together with FHIN1 or DMF, LPS 4 h): abrogated |
| CC[C@H]1/C=C/C=C/C[C@@H](C)[C@H](O)[C@@](C)(O)C(=O)[C@@H](C)[C@H](O)[C@@H](C)C(=O)[C@@H](C)[C@H](O)[C@@H](C)/C=C/C(=O)O[C@@H]2[C@H](C)[C@H](CC1)O[C@]1(CC[C@H](C)[C@H](C[C@@H](C)O)O1)[C@H]2C [oligomycin A, Oligomycin A] | boosted | boosted | accumulation of dsRNA to a similar extent to that observed in cells treated with FHIN1 | mtDNA in cytosolic extracts (D-loop) ([3]; digitonin-fractionated BMDMs): increase; mtRNA in cytosolic extracts ([3]; digitonin-fractionated BMDMs): increased |
| CC(C)[C@@H]1NC(=O)[C@H](C)OC(=O)[C@@H](C(C)C)NC(=O)[C@@H](C(C)C)OC(=O)[C@H](C(C)C)NC(=O)[C@H](C)OC(=O)[C@@H](C(C)C)NC(=O)[C@@H](C(C)C)OC(=O)[C@H](C(C)C)NC(=O)[C@H](C)OC(=O)[C@@H](C(C)C)NC(=O)[C@@H](C(C)C)OC1=O [valinomycin A, valinomycin] | non-significantly reduced | boosted | similarly drove dsRNA accumulation |  |
| B1 |  |  |  | Fh1 expression ([4]; IFN-β-stimulated BMDMs (220 ng/ml, 3 h)): inhibited |
